Source: patent US10287301B2 (Achillion Pharmaceuticals, Inc., priority 2015, dated 2019)
pIC50: −log10 of the molar value. Where two headings read alike, the source gives them in different places.

Target: Human Factor D (Homo sapiens (Human), UniProt P00746)
Experiment: Human Factor D Assay
Format: biochemical
In short: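 Factor D (from human serum) 80 nM final + cpd, 5 min RT, 50 mM Tris/1M NaCl pH 7.5; add Z-L-Lys-SBzl 100 μM and DTNB 100 μM final. IC50 by nonlinear fit of rates vs [cpd].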

[1] = Human Factor D, Table 3, read-out: IC50

Sequence of Human Factor D (P00746 26-253): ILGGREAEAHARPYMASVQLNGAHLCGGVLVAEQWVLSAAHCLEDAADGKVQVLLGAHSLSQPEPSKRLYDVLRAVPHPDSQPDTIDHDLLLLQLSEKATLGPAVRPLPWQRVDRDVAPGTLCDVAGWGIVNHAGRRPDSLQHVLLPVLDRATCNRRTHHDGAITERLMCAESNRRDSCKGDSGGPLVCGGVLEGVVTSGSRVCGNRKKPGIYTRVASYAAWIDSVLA

SMILES	pIC50 [1]	pIC50
CCc1cc2ncc(-c3ccc4c(c3)c(C(C)=O)nn4CC(=O)N3C[C@H](F)C[C@H]3C(=O)Nc3cccc(Br)n3)cn2n1 [Compound 681, (2S,4R)-1-(2-(3-Acetyl-5-(2-ethylpyrazolo[1,5-a]pyrimidin-6-yl)-1H-indazol-1-yl)acetyl)-N-(6-bromopyridin-2-yl)-4-fluoropyrrolidine-2-carboxamide]	> 6.00	–
CC(=O)c1nn(CC(=O)N2C[C@H](F)C[C@H]2C(=O)Nc2cccc(Br)n2)c2ccc(-c3cnc4cc(C(C)(C)C)nn4c3)cc12 [Compound 682, (2S,4R)-1-(2-(3-Acetyl-5-(2-(tert-butyl)pyrazolo[1,5-a]pyrimidin-6-yl)-1H-indazol-1-yl)acetyl)-N-(6-bromopyridin-2-yl)-4-fluoropyrrolidine-2-carboxamide]	> 6.00	–
CC(=O)c1nn(CC(=O)N2C[C@H](F)C[C@H]2C(=O)Nc2cccc(Br)n2)c2ccc(-c3cnc4cc(F)nn4c3)cc12 [Compound 683, (2S,4R)-1-(2-(3-Acetyl-5-(2-fluoropyrazolo[1,5-a]pyrimidin-6-yl)-1H-indazol-1-yl)acetyl)-N-(6-bromopyridin-2-yl)-4-fluoropyrrolidine-2-carboxamide]	> 6.00	–
CC(=O)c1nn(CC(=O)N2C[C@H](F)C[C@H]2C(=O)Nc2cccc(Br)n2)c2ccc(-c3cnc4cc(C(F)(F)F)nn4c3)cc12 [Compound 684, (2S,4R)-1-(2-(3-Acetyl-5-(2-(trifluoromethyl)pyrazolo[1,5-a]pyrimidin-6-yl)-1H-indazol-1-yl)acetyl)-N-(6-bromopyridin-2-yl)-4-fluoropyrrolidine-2-carboxamide]	> 6.00	–
CC(=O)c1cn(CC(=O)N2C[C@H](F)C[C@H]2C(=O)NCc2ccccc2)c2ccc(-c3cnc4cc(C)nn4c3)cc12 [Compound 685, (2S,4R)-1-(2-(3-Acetyl-5-(2-methylpyrazolo[1,5-a]pyrimidin-6-yl)-1H-indol-1-yl)acetyl)-N-benzyl-4-fluoropyrrolidine-2-carboxamide]	> 6.00	–
CC(=O)c1cn(CC(=O)N2C[C@H](F)C[C@H]2C(=O)NCCc2ccccc2)c2ccc(-c3cnc4cc(C)nn4c3)cc12 [Compound 686, (2S,4R)-1-(2-(3-Acetyl-5-(2-methylpyrazolo[1,5-a]pyrimidin-6-yl)-1H-indol-1-yl)acetyl)-4-fluoro-N-phenethylpyrrolidine-2-carboxamide]	> 6.00	–
CC(=O)c1cn(CC(=O)N2C[C@H](F)C[C@H]2C(=O)NCCCc2ccccc2)c2ccc(-c3cnc4cc(C)nn4c3)cc12 [Compound 687, (2S,4R)-1-(2-(3-Acetyl-5-(2-methylpyrazolo[1,5-a]pyrimidin-6-yl)-1H-indol-1-yl)acetyl)-4-fluoro-N-(3-phenylpropyl)pyrrolidine-2-carboxamide]	> 6.00	–
CC(=O)c1cn(CC(=O)N2C[C@H](F)C[C@H]2C(=O)NCCCCc2ccccc2)c2ccc(-c3cnc4cc(C)nn4c3)cc12 [Compound 688, (2S,4R)-1-(2-(3-Acetyl-5-(2-methylpyrazolo[1,5-a]pyrimidin-6-yl)-1H-indol-1-yl)acetyl)-4-fluoro-N-(4-phenylbutyl)pyrrolidine-2-carboxamide]	> 6.00	–
CC(=O)c1nn(CC(=O)N2C[C@H](F)C[C@H]2C(=O)Nc2cccc(Br)n2)c2ccc(-c3cnn4c3CCC4)cc12 [Compound 693, (2S,4R)-1-(2-(3-Acetyl-5-(5,6-dihydro-4H-pyrrolo[1,2-b]pyrazol-3-yl)-1H-indazol-1-yl)acetyl)-N-(6-bromopyridin-2-yl)-4-fluoropyrrolidine-2-carboxamide]	> 6.00	–
Cc1cccc(NC(=O)[C@@H]2[C@H]3CC[C@H](C3)N2C(=O)Cn2cc(C(N)=O)c3cc(-c4cnc5ncccn45)ccc32)n1 [Compound 695, 5-(Imidazo[1,2-a]pyrimidin-3-yl)-1-(2-((1R,3S,4S)-3-(6-methylpyridin-2-ylcarbamoyl)-2-azabicyclo[2.2.1]heptan-2-yl)-2-oxoethyl)-1H-indole-3-carboxamide]	< 5.00	–
CC(=O)c1nn(CC(=O)N2C[C@H](F)C[C@H]2C(=O)Nc2cccc(Br)n2)c2ccc(-c3cnn(-c4ncccn4)c3)cc12 [Compound 696, (2S,4R)-1-(2-(3-Acetyl-5-(1-(pyrimidin-2-yl)-1H-pyrazol-4-yl)-1H-indazol-1-yl)acetyl)-N-(6-bromopyridin-2-yl)-4-fluoropyrrolidine-2-carboxamide]	> 6.00	–
Cc1cccc(NC(=O)[C@@H]2[C@H]3CC[C@H](C3)N2C(=O)Cn2cc(C(N)=O)c3cc(-c4cnc5n4CCCC5)ccc32)n1 [Compound 698, 1-(2-((1R,3S,4S)-3-(6-Methylpyridin-2-ylcarbamoyl)-2-azabicyclo[2.2.1]heptan-2-yl)-2-oxoethyl)-5-(5,6,7,8-tetrahydroimidazo[1,2-a]pyridin-3-yl)-1H-indole-3-carboxamide]	< 5.00	–
CC(=O)c1nn(CC(=O)N2C[C@H](F)C[C@H]2C(=O)Nc2cccc(Br)n2)c2ccc(-c3cnn(-c4ncc(F)cn4)c3)cc12 [Compound 699, (2S,4R)-1-(2-(3-Acetyl-5-(1-(5-fluoropyrimidin-2-yl)-1H-pyrazol-4-yl)-1H-indazol-1-yl)acetyl)-N-(6-bromopyridin-2-yl)-4-fluoropyrrolidine-2-carboxamide]	> 6.00	–
CC(=O)c1cn(CCN2C[C@H](F)C[C@H]2C(=O)Nc2cccc(OC(F)(F)F)c2F)c2ccc(-c3cnc4cc(C)nn4c3)cc12 [Compound 701, (2S,4R)-1-(2-(3-Acetyl-5-(2-methylpyrazolo[1,5-a]pyrimidin-6-yl)-1H-indol-1-yl)ethyl)-4-fluoro-N-(2-fluoro-3-(trifluoromethoxy)phenyl)pyrrolidine-2-carboxamide]	< 5.00	–
CC(=O)c1nn(CC(=O)N2C[C@H](F)C[C@H]2C(=O)Nc2cccc(Br)n2)c2ccc(-c3cnc(=O)n(C)c3)cc12 [Compound 702, (2S,4R)-1-(2-(3-Acetyl-5-(1-methyl-2-oxo-1,2-dihydropyrimidin-5-yl)-1H-indazol-1-yl)acetyl)-N-(6-bromopyridin-2-yl)-4-fluoropyrrolidine-2-carboxamide]	> 6.00	–
Cc1cccc(NC(=O)[C@@H]2[C@H]3CC[C@H](C3)N2C(=O)Cn2cc(C(N)=O)c3cc(-c4n[nH]c5ccsc45)ccc32)n1 [Compound 704, 1-(2-((1R,3S,4S)-3-((6-Methylpyridin-2-yl)carbamoyl)-2-azabicyclo[2.2.1]heptan-2-yl)-2-oxoethyl)-5-(1H-thieno[3,2-c]pyrazol-3-yl)-1H-indole-3-carboxamide]	–	< 5.00
CC(=O)c1nn(CC(=O)N2CC[C@H]2C(=O)Nc2cccc(C)n2)c2ccc(-c3cnc4n3CCCC4)cc12 [Compound 705, (S)-1-(2-(3-Acetyl-5-(5,6,7,8-tetrahydroimidazo[1,2-a]pyridin-3-yl)-1H-indazol-1-yl)acetyl)-N-(6-methylpyridin-2-yl)azetidine-2-carboxamide]	< 5.00	–
CC(=O)c1nn(CC(=O)N2C[C@H](F)C[C@H]2C(=O)Nc2cccc(Br)n2)c2ccc(-c3cnn(C4CC4)c3)cc12 [Compound 706, (2S,4R)-1-(2-(3-Acetyl-5-(1-cyclopropyl-1H-pyrazol-4-yl)-1H-indazol-1-yl)acetyl)-N-(6-bromopyridin-2-yl)-4-fluoropyrrolidine-2-carboxamide]	> 6.00	–
CC(=O)c1nn(CC(=O)N2C[C@H](F)C[C@H]2C(=O)Nc2cccc(Br)n2)c2ccc(-c3cn[nH]c3)cc12 [Compound 707, (2S,4R)-1-(2-(3-acetyl-5-(1H-pyrazol-4-yl)-1H-indazol-1-yl)acetyl)-N-(6-bromopyridin-2-yl)-4-fluoropyrrolidine-2-carboxamide]	> 6.00	–
CC(=O)c1nn(CC(=O)N2CCC[C@H]2C(=O)Nc2cccc(C)n2)c2ccc(-c3cnc4ncccn34)cc12 [Compound 708, (S)-1-(2-(3-Acetyl-5-(imidazo[1,2-a]pyrimidin-3-yl)-1H-indazol-1-yl)acetyl)-N-(6-methylpyridin-2-yl)pyrrolidine-2-carboxamide]	> 6.00	–
CC(=O)c1nn(CC(=O)N2CC[C@H]2C(=O)Nc2cccc(C)n2)c2ccc(-c3cnc4ncccn34)cc12 [Compound 709, (S)-1-(2-(3-Acetyl-5-(imidazo[1,2-a]pyrimidin-3-yl)-1H-indazol-1-yl)acetyl)-N-(6-methylpyridin-2-yl)azetidine-2-carboxamide]	> 6.00	–
CC(=O)n1cc(CC(=O)N2C[C@H](F)C[C@H]2C(=O)Nc2cccc(-c3ccccc3Cl)c2F)c2ccc(-c3cnc(C)nc3)cc21 [Compound 710, (2S,4R)-1-(2-(1-Acetyl-6-(2-methylpyrimidin-5-yl)-1H-indol-3-yl)acetyl)-N-(2′-chloro-2-fluoro-[1,1′-biphenyl]-3-yl)-4-fluoropyrrolidine-2-carboxamide]	> 6.00	–
CC(=O)n1cc(CC(=O)N2C[C@H](F)C[C@H]2C(=O)Nc2cccc(Br)n2)c2ccc(-c3cnc(C)nc3)cc21 [Compound 711, (2S,4R)-1-(2-(1-Acetyl-6-(2-methylpyrimidin-5-yl)-1H-indol-3-yl)acetyl)-N-(6-bromopyridin-2-yl)-4-fluoropyrrolidine-2-carboxamide]	> 6.00	–
Cc1cccc(NC(=O)[C@@H]2C[C@@H](F)CN2C(=O)Cn2nc(C(N)=O)c3sc(-c4cnc5cc(C)nn5c4)nc32)n1 [Compound 714, 1-(2-((2S,4R)-4-Fluoro-2-(6-methylpyridin-2-ylcarbamoyl)pyrrolidin-1-yl)-2-oxoethyl)-5-(2-methylpyrazolo[1,5-a]pyrimidin-6-yl)-1H-pyrazolo[3,4-d]thiazole-3-carboxamide]	< 5.00	–
Cc1cccc(NC(=O)[C@@H]2C[C@@H](F)CN2C(=O)Cn2nc(C(N)=O)c3sc(-c4cnc(C)nc4)nc32)n1 [Compound 715, 1-(2-((2S,4R)-4-Fluoro-2-(6-methylpyridin-2-ylcarbamoyl)pyrrolidin-1-yl)-2-oxoethyl)-5-(2-methylpyrimidin-5-yl)-1H-pyrazolo[3,4-d]thiazole-3-carboxamide]	< 5.00	–
